Measured values taken from PubChem BioAssay (NCI).
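Values below derive from 48-hour exposures of cells grown in 96-well plates, with endpoints linearly interpolated between the two concentrations bracketing the appropriate inhibition level. The concentration for 50% growth inhibition is given as GI50. TGI: concentration producing complete growth inhibition.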

Columns and labels:
Test in all cases: growth of human tumour cells (NCI), 48 h
786-0 renal = tested on: 786-0 renal
NCI-H522 lung = tested on: NCI-H522 lung
RXF 393 renal = tested on: RXF 393 renal
OVCAR-4 ovarian = tested on: OVCAR-4 ovarian
NCI-H23 lung = tested on: NCI-H23 lung
SF-268 CNS = tested on: SF-268 CNS
SK-OV-3 ovarian = tested on: SK-OV-3 ovarian
HL-60(TB) leukemia = tested on: HL-60(TB) leukemia
U251 CNS = tested on: U251 CNS
SR leukemia = tested on: SR leukemia
CCRF-CEM leukemia = tested on: CCRF-CEM leukemia
HS 578T breast = tested on: HS 578T breast
MOLT-4 leukemia = tested on: MOLT-4 leukemia
UACC-257 melanoma = tested on: UACC-257 melanoma
MDA-MB-231 breast = tested on: MDA-MB-231 breast
HCT-116 colon = tested on: HCT-116 colon
LOX IMVI melanoma = tested on: LOX IMVI melanoma
MCF7 breast = tested on: MCF7 breast
OVCAR-8 ovarian = tested on: OVCAR-8 ovarian
NCI-H460 lung = tested on: NCI-H460 lung
TK-10 renal = tested on: TK-10 renal
IGROV1 ovarian = tested on: IGROV1 ovarian
A549 NSCLC = tested on: A549 NSCLC
HT29 colon = tested on: HT29 colon
NCI/ADR-RES ovarian = tested on: NCI/ADR-RES ovarian
HOP-62 NSCLC = tested on: HOP-62 NSCLC
RPMI-8226 leukemia = tested on: RPMI-8226 leukemia
SW-620 colon = tested on: SW-620 colon
KM12 colon = tested on: KM12 colon
CAKI-1 renal = tested on: CAKI-1 renal
SF-295 CNS = tested on: SF-295 CNS
SK-MEL-28 melanoma = tested on: SK-MEL-28 melanoma
NCI-H226 lung = tested on: NCI-H226 lung
DU-145 prostate = tested on: DU-145 prostate
HCT-15 colon = tested on: HCT-15 colon
OVCAR-3 ovarian = tested on: OVCAR-3 ovarian
COLO 205 colon = tested on: COLO 205 colon
SN12C renal = tested on: SN12C renal
UACC-62 melanoma = tested on: UACC-62 melanoma
UO-31 renal = tested on: UO-31 renal
EKVX NSCLC = tested on: EKVX NSCLC
M14 melanoma = tested on: M14 melanoma
OVCAR-5 ovarian = tested on: OVCAR-5 ovarian
SK-MEL-2 melanoma = tested on: SK-MEL-2 melanoma
SK-MEL-5 melanoma = tested on: SK-MEL-5 melanoma
K-562 leukemia = tested on: K-562 leukemia
ACHN renal = tested on: ACHN renal
BT-549 breast = tested on: BT-549 breast
MALME-3M melanoma = tested on: MALME-3M melanoma
SF-539 CNS = tested on: SF-539 CNS
SNB-19 CNS = tested on: SNB-19 CNS
HCC-2998 colon = tested on: HCC-2998 colon
SNB-75 CNS = tested on: SNB-75 CNS
T-47D breast = tested on: T-47D breast
MDA-MB-435 = tested on: MDA-MB-435
PC-3 prostate = tested on: PC-3 prostate
A498 renal = tested on: A498 renal

CCC(=O)Oc1ccc(/C=N/NC(N)=S)nc1
GI50 (786-0 renal): 3.19 µM | TGI (786-0 renal): 13.7 µM | GI50 (NCI-H522 lung): 4.58 µM | TGI (NCI-H522 lung): 76.5 µM | GI50 (RXF 393 renal): 2.93 µM | TGI (RXF 393 renal): > 100 µM | GI50 (OVCAR-4 ovarian): 3.92 µM | TGI (OVCAR-4 ovarian): > 100 µM | GI50 (NCI-H23 lung): 2.48 µM | TGI (NCI-H23 lung): > 100 µM | GI50 (SF-268 CNS): 3.46 µM | TGI (SF-268 CNS): > 100 µM | GI50 (SK-OV-3 ovarian): 29.7 µM | TGI (SK-OV-3 ovarian): > 100 µM | GI50 (HL-60(TB) leukemia): 2.17 µM | TGI (HL-60(TB) leukemia): > 100 µM | GI50 (U251 CNS): 4.5 µM | TGI (U251 CNS): > 100 µM | GI50 (SR leukemia): 1.34 µM | TGI (SR leukemia): > 100 µM | GI50 (CCRF-CEM leukemia): 2.81 µM | TGI (CCRF-CEM leukemia): > 100 µM | GI50 (HS 578T breast): 30.9 µM | TGI (HS 578T breast): > 100 µM | GI50 (MOLT-4 leukemia): 3.3 µM | TGI (MOLT-4 leukemia): > 100 µM | GI50 (UACC-257 melanoma): 21.5 µM | TGI (UACC-257 melanoma): > 100 µM | GI50 (MDA-MB-231 breast): 6.79 µM | TGI (MDA-MB-231 breast): > 100 µM | GI50 (HCT-116 colon): 4.46 µM | TGI (HCT-116 colon): > 100 µM | GI50 (LOX IMVI melanoma): 2.91 µM | TGI (LOX IMVI melanoma): > 100 µM | GI50 (MCF7 breast): 1.88 µM | TGI (MCF7 breast): > 100 µM | GI50 (OVCAR-8 ovarian): 3.51 µM | TGI (OVCAR-8 ovarian): > 100 µM | GI50 (NCI-H460 lung): 4.04 µM | TGI (NCI-H460 lung): 46.6 µM | GI50 (TK-10 renal): 49 µM | TGI (TK-10 renal): > 100 µM | GI50 (IGROV1 ovarian): 9.94 µM | TGI (IGROV1 ovarian): > 100 µM | GI50 (A549 NSCLC): 35.4 µM | TGI (A549 NSCLC): > 100 µM | GI50 (HT29 colon): 19.3 µM | TGI (HT29 colon): > 100 µM | GI50 (NCI/ADR-RES ovarian): 3.27 µM | TGI (NCI/ADR-RES ovarian): > 100 µM | GI50 (HOP-62 NSCLC): 5.53 µM | TGI (HOP-62 NSCLC): 82.3 µM | GI50 (RPMI-8226 leukemia): 28.5 µM | TGI (RPMI-8226 leukemia): > 100 µM | GI50 (SW-620 colon): 7.67 µM | TGI (SW-620 colon): > 100 µM | GI50 (KM12 colon): 4.69 µM | TGI (KM12 colon): > 100 µM | GI50 (CAKI-1 renal): 4.97 µM | TGI (CAKI-1 renal): > 100 µM | GI50 (SF-295 CNS): 12.3 µM | TGI (SF-295 CNS): > 100 µM | GI50 (SK-MEL-28 melanoma): 34.3 µM | TGI (SK-MEL-28 melanoma): > 100 µM | GI50 (NCI-H226 lung): 9.72 µM | TGI (NCI-H226 lung): 43.4 µM | GI50 (DU-145 prostate): 3.05 µM | TGI (DU-145 prostate): > 100 µM | GI50 (HCT-15 colon): 6.38 µM | TGI (HCT-15 colon): > 100 µM | GI50 (OVCAR-3 ovarian): 3.37 µM | TGI (OVCAR-3 ovarian): > 100 µM | GI50 (COLO 205 colon): 27.5 µM | TGI (COLO 205 colon): > 100 µM | GI50 (SN12C renal): 3.75 µM | TGI (SN12C renal): > 100 µM | GI50 (UACC-62 melanoma): 3.43 µM | TGI (UACC-62 melanoma): > 100 µM | GI50 (UO-31 renal): 3.48 µM | TGI (UO-31 renal): 22.8 µM | GI50 (EKVX NSCLC): 43.7 µM | TGI (EKVX NSCLC): > 100 µM | GI50 (M14 melanoma): 2.01 µM | TGI (M14 melanoma): 5.59 µM | GI50 (OVCAR-5 ovarian): 34 µM | TGI (OVCAR-5 ovarian): > 100 µM | GI50 (SK-MEL-2 melanoma): 33 µM | TGI (SK-MEL-2 melanoma): > 100 µM | GI50 (SK-MEL-5 melanoma): 3.01 µM | TGI (SK-MEL-5 melanoma): 77.2 µM | GI50 (K-562 leukemia): 5.05 µM | TGI (K-562 leukemia): > 100 µM | GI50 (ACHN renal): 1.01 µM | TGI (ACHN renal): 21 µM | GI50 (BT-549 breast): 11.9 µM | TGI (BT-549 breast): > 100 µM | GI50 (MALME-3M melanoma): 6.86 µM | TGI (MALME-3M melanoma): > 100 µM | GI50 (SF-539 CNS): 1.51 µM | TGI (SF-539 CNS): 5.52 µM | GI50 (SNB-19 CNS): 14.2 µM | TGI (SNB-19 CNS): > 100 µM | GI50 (HCC-2998 colon): 13.6 µM | TGI (HCC-2998 colon): > 100 µM | GI50 (SNB-75 CNS): 6.13 µM | TGI (SNB-75 CNS): > 100 µM | GI50 (T-47D breast): 5.83 µM | TGI (T-47D breast): > 100 µM | GI50 (MDA-MB-435): 7.86 µM | TGI (MDA-MB-435): > 100 µM | GI50 (PC-3 prostate): 6.83 µM | TGI (PC-3 prostate): > 100 µM | GI50 (A498 renal): 23.3 µM | TGI (A498 renal): > 100 µM
